{"source": "patent US20250186329A1", "about": "“A SKIN BRIGHTENING COMPOSITION” (Conopco, Inc., d/b/a UNILEVER, priority 2022, published 2025)", "system": "co-cultures of HaCaT keratinocytes and melanocytes (neonatal primary human epidermal melanocytes)", "assay": "Melanin content assay (% cellular melanin vs control) in keratinocyte/melanocyte co-cultures", "type": "cell-based", "details": "percentage cellular melanin vs control; 72 h of active treatment; OD at 405 nm; active concentrations (wt %) as given per example", "description": "Various samples containing actives were prepared and the % cellular melanin content was measured. The protocol for measuring the cellular melanin is summarized below:\nNeonatal primary human epidermal melanocytes were sourced from Life Technologies. Melanocytes were maintained in Medium 254 supplemented with human melanocyte growth supplement (MGM). HaCaT keratinocytes were maintained in DMEM medium containing 10% heat inactivated FBS. All media were also supplemented with 10 U/mL penicillin G and 0.1 mg/mL streptomycin sulphate. Both cell types were maintained at 37° C. in a humidified incubator with 5% CO2 atmosphere. Maintenance and sub-culturing of cells were carried out as per the manufacturer's instructions.\nFor setup of co-cultures, 40,000 cells each of HaCaT keratinocytes and melanocytes were mixed in 1 mL of a 1:1 mix of MGM:KGM (KGM: Epilife medium supplemented with human keratinocyte growth supplement) and seeded as such per well, in 12 well Nunc plates.\nActives were prepared in media and test concentrations were added to cells along with relevant controls 24 h post seeding. After 72 h of active treatment, cell viability (using calcein method) and measurement of cellular melanin content was determined as described below.\nAfter calcein fluorescence readings were obtained, cells were drained and fresh 0.15 mL of 1N NaOH (in 10% DMSO) per well was added. Cells were lysed by resuspension and incubation (60° C. for 1 h). Then, 0.1 mL of this lysate was transferred to a fresh 384-well plate and OD was measured at 405 nm in a TECAN M1000 plate reader. Melanin content was calculated as percentage cellular melanin vs control.", "note": "Marks after values point to notes of the source that are not given here.", "data": [{"compound": "CCCCCCc1ccc(O)cc1O", "note": "[Example E, 4-hexyl resorcinol, reference compound]", "values": [{"measurement": "% cellular melanin", "value": "69* %"}]}, {"compound": "Inulin [Example C]", "values": [{"measurement": "% cellular melanin", "value": 96, "unit": "%"}]}, {"compound": "Inulin [B]", "values": [{"measurement": "% cellular melanin", "value": 86, "unit": "%"}]}]}
